Patent US20250145633A1, “SUBSTITUTED FURANOPYRIMIDINE COMPOUNDS AS PDE1 INHIBITORS” (Dart NeuroScience, LLC, priority 2017, published 2025)

These compounds were tested against human PDE1B enzyme (Homo sapiens (Human), UniProt Q01064) (assay: IMAP TR-FRET PDE1B enzymatic assay). Settings: negative log of half-maximal molar inhibitory concentration; 200 nM FAM-cAMP; values given as bins.
Type: biochemical
Outline: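 Full-length GST-tagged human PDE1B (250 pg/well) in IMAP BSA buffer with 10 U/ml calmodulin and 2.5 mM CaCl2; compound pre-incubated 5 min at room temperature, then 200 nM (final) FAM-cAMP for 30 min. IMAP binding reagent/Tb added, 1 h; TR-FRET 520/490 ratio read. IC50 from sigmoidal dose-response fit.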
For `Cc1oc2ncnc(NC3(C)CC3)c2c1C(=O)N1CCC(F)(c2ccccn2)CC1` [Example 62, 5-[4-Fluoro-4-(pyridin-2-yl)piperidine-1-carbonyl]-6-methyl-N-(1-methylcyclopropyl)furo[2,3-d]pyrimidin-4-amine], the “PDE1b (pIC50)” value was >8. With `Cc1oc2ncnc(NC3(C)CC3)c2c1C(=O)NCc1cccc(C#N)c1` [Example 66, N-[(3-Cyanophenyl)methyl]-6-methyl-4-[(1-methylcyclopropyl)amino]furo[2,3-d]pyrimidine-5-carboxamide] the “PDE1b (pIC50)” value was >8.

Same assay, conditions: negative log of half-maximal molar inhibitory concentration; 200 nM FAM-cAMP; values given as bins; read-out: PDE1b (pIC50) (converted)
`COc1nc(C(C)C)nc2c1CN(C(=O)c1c(C)oc3ncnc(NC4(C)CC4)c13)C2` [Example 688, 5-[4-Methoxy-2-(propan-2-yl)-5H,6H,7H-pyrrolo[3,4-d]pyrimidine-6-carbonyl]-6-methyl-N-(1-methylcyclopropyl)furo[2,3-d]pyrimidin-4-amine] showed an IC50 of 0.01 to 0.1 µM. Compound `Cc1nn(C)c(C)c1NC(=O)c1c(C)oc2ncnc(NC3(C)CC3)c12` [Example 418, 6-Methyl-4-[(1-methylcyclopropyl)amino]-N-(trimethyl-1H-pyrazol-4-yl)furo[2,3-d]pyrimidine-5-carboxamide] has an IC50 of 0.01 to 0.1 µM. Compound `Cc1oc2ncnc(NC3(C)CC3)c2c1C(=O)NCc1cccn1C` [Example 111, 6-Methyl-N-[(1-methyl-1H-pyrrol-2-yl)methyl]-4-[(1-methylcyclopropyl)amino]furo[2,3-d]pyrimidine-5-carboxamide] has an IC50 of 0.01 to 0.1 µM. `Cc1oc2ncnc(NC3(C)CC3)c2c1C(=O)Nc1cnn(-c2ccncc2)c1` [Example 621, 6-Methyl-4-[(1-methylcyclopropyl)amino]-N-[1-(pyridin-4-yl)-1H-pyrazol-4-yl]furo[2,3-d]pyrimidine-5-carboxamide] showed an IC50 of 0.01 to 0.1 µM. Work on `Cc1oc2ncnc(NC3(C)CC3)c2c1C(=O)N1CCC(c2ncccc2F)C1` (centres unmarked) [Example 529, 5-[3-(3-Fluoropyridin-2-yl)pyrrolidine-1-carbonyl]-6-methyl-N-(1-methylcyclopropyl)furo[2,3-d]pyrimidin-4-amine] yielded an IC50 of 0.01 to 0.1 µM. For `Cc1oc2ncnc(NC3(C)CC3)c2c1C(=O)NCc1ccc(O)cn1` [Example 10, N-[(5-Hydroxypyridin-2-yl)methyl]-6-methyl-4-[(1-methylcyclopropyl)amino]furo[2,3-d]pyrimidin-5-carboxamide], the IC50 was 0.01 to 0.1 µM. With `Cc1oc2ncnc(NC3(C)CC3)c2c1C(=O)Nc1cnc(N2CCOCC2)cn1` [Example 658, 6-Methyl-4-[(1-methylcyclopropyl)amino]-N-[5-(morpholin-4-yl)pyrazin-2-yl]furo[2,3-d]pyrimidine-5-carboxamide] the IC50 was 0.01 to 0.1 µM. `COc1ccc(-c2cnn(C(=O)c3c(C)oc4ncnc(NC5(C)CC5)c34)c2)cc1` [Example 406, 5-[4-(4-Methoxyphenyl)-1H-pyrazole-1-carbonyl]-6-methyl-N-(1-methylcyclopropyl)furo[2,3-d]pyrimidin-4-amine] showed an IC50 of 0.1 to 1 µM. With `Cc1oc2ncnc(NC3(C)CC3)c2c1C(=O)N1CCC(c2cn(C)nn2)CC1` [Example 778, 6-Methyl-5-[4-(1-methyl-1H-1,2,3-triazol-4-yl)piperidine-1-carbonyl]-N-(1-methylcyclopropyl)furo[2,3-d]pyrimidin-4-amine] the IC50 was 0.01 to 0.1 µM. `Cc1oc2ncnc(NC3(C)CC3)c2c1C(=O)N1CCN(c2ncc(F)cn2)C(C)C1` (centres unmarked) [Example 358, 5-[4-(5-Fluoropyrimidin-2-yl)-3-methylpiperazine-1-carbonyl]-6-methyl-N-(1-methylcyclopropyl)furo[2,3-d]pyrimidin-4-amine] showed an IC50 of 0.01 to 0.1 µM. `Cc1oc2ncnc(NC3(C)CC3)c2c1C(=O)N1CCC(c2ccccn2)C1` (centres unmarked) [Example 70, 6-Methyl-N-(1-methylcyclopropyl)-5-[3-(pyridin-2-yl)pyrrolidine-1-carbonyl]furo[2,3-d]pyrimidin-4-amine] gave an IC50 of 0.01 to 0.1 µM. For `COCCN1CCN(C(=O)c2c(C)oc3ncnc(NC4(C)CC4)c23)CC1` [Example 260, 5-[4-(2-Methoxyethyl)piperazine-1-carbonyl]-6-methyl-N-(1-methylcyclopropyl)furo[2,3-d]pyrimidin-4-amine], the IC50 was 0.1 to 1 µM.
